Activity data for 2 compounds are collected here from ChEMBL document CHEMBL1159208, “The structures and cytotoxic properties of polyketide peroxides from a Plakortis sponge” (J Nat Prod, 1995).

The source made the active and inactive calls. The rule behind the calls is not given here.

The test has as its system NCI60. Description: Cytotoxicity against human NCI60 cells. Type of test: functional, cell-based.

`C[C@]1(CCCCCCCCCCc2ccccc2)C[C@@]2(C)OC(=O)C[C@H]2O1`: the outcome was inactive.
Under `C[C@]1(CCCCCCCCc2ccccc2)CC[C@](C)(CCC(=O)O)OO1` stands “inactive”.
